The results in this text go back to PMC6156383 (Frontiers in Psychiatry, 2018).

For assay [1], the target named is T1, NOP receptor (Homo sapiens, UniProt P41146).
T1 construct: expressed in transfected cells
Nature of the assay: [35S]GTPγS antagonist assay versus N/OFQ. The format is biochemical. On the technique in general: Binding of GTPγS marks nucleotide exchange on a G protein.

Assay [2] has as its target T2, KOP receptor (Homo sapiens, UniProt P41145).
T2 construct: expressed in transfected cells
Nature of the assay: [35S]GTPγS antagonist assay versus U69593. The format is biochemical.

The target of assay [3] is T3, DOP receptor (Homo sapiens, UniProt P41143).
T3 construct: expressed in transfected cells
Nature of the assay: [35S]GTPγS binding stimulation (agonist), CHO membranes. The format is biochemical.

For assay [4], the target named is T4, MOP receptor (Homo sapiens, UniProt P35372).
T4 construct: expressed in transfected cells
Nature of the assay: [35S]GTPγS antagonist assay and Schild analysis versus DAMGO. In kind it is biochemical.

For assay [5], the target named is T4, MOP receptor. In kind it is biochemical.
The target of assay [6] is T3, DOP receptor. Nature of the assay: [35S]GTPγS antagonist assay versus DPDPE. In kind it is biochemical.
The target of assay [7] is T3, DOP receptor. The format is binding.
Assay [8] concerns the target T4, MOP receptor. The format is binding.
Assay [9] deals with T1, NOP receptor. Nature of the assay: [35S]GTPγS binding stimulation (agonist), CHO membranes. In kind it is biochemical.
Assay [10] addresses T1, NOP receptor. In kind it is binding.
The target in assay [11] is T2, KOP receptor. The format is binding.
The subject of assay [12] is CD1 mice. Nature of the assay: Mouse tail flick assay (radiant heat, acute thermal nociception). The format is in vivo. For orientation: In hot-plate and tail-flick tests a longer latency is read as antinociception.
The target in assay [13] is T2, KOP receptor. The format is biochemical.

Molecules are shown by their SMILES. “And” between values parts separate entries of the source, which are not always exact repeats. Equal values may be shown once.

T4 sequence (P35372 whole entry): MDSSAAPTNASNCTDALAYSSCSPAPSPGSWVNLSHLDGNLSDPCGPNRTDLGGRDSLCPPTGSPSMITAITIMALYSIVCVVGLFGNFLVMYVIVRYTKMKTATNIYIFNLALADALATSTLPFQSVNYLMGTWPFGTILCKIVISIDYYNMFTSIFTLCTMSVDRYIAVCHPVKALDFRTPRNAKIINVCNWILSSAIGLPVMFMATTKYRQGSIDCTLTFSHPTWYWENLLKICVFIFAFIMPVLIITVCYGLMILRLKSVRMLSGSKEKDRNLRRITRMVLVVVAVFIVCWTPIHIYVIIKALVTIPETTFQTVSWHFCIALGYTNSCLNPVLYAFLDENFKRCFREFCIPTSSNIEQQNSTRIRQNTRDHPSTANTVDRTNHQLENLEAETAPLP
T1 sequence (P41146 whole entry): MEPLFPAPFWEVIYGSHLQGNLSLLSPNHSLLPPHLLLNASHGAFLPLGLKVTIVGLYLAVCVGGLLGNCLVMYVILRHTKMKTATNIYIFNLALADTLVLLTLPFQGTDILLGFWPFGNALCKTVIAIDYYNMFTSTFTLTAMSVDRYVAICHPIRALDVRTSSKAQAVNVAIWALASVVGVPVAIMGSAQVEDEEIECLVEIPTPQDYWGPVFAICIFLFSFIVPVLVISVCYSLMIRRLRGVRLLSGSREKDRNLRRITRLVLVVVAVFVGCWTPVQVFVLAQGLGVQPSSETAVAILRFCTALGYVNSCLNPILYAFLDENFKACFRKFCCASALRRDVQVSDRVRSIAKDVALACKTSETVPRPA
T2 sequence (P41145 whole entry): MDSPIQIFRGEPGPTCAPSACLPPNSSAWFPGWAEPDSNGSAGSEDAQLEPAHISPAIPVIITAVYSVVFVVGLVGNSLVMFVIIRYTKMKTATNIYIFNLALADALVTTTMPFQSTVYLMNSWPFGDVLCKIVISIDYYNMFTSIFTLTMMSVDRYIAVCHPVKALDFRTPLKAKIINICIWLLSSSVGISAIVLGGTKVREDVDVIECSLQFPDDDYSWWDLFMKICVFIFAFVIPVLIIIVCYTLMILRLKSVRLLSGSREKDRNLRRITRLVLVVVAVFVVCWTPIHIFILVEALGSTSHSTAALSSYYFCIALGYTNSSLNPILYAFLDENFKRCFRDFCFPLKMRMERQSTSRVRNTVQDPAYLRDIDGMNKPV
T3 sequence (P41143 whole entry): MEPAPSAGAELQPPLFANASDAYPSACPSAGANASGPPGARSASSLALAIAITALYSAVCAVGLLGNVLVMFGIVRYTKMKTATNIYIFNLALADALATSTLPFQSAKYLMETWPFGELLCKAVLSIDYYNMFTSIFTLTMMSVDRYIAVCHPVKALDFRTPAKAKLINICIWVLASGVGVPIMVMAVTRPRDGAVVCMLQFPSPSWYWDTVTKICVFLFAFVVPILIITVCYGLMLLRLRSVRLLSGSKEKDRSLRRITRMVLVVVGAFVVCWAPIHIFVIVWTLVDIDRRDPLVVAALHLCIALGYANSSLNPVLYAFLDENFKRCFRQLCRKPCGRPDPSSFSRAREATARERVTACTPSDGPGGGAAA

For orientation: IC50 means the concentration at which inhibition is half-maximal. One may read the EC50 as the midpoint of the concentration-response curve. As usually defined, the Ki is a dissociation constant, usually derived from enzyme kinetics or from competition with a known ligand. Higher therefore signals a looser hold on the target. As for `COc1ccc(CC(=O)O[C@@]23CCC(=O)[C@@H]4Oc5c(O)ccc6c5[C@@]42CCN(CC2CC2)[C@@H]3C6)cc1` [Compound 7f, 14β-(4′-methoxyphenylacetyl)-17-cyclopropylmethyl-7,8-dihydronoroxymorphinone], the “Type of inhibition at NOP” value in assay [1] ([35S]GTPγS antagonist assay) is reported as “non-competitive”. Besides, the IC50 worked out at 5640 nM in [1] ([35S]GTPγS, in the presence of 100 nM N/OFQ); 12.2 ± 0.11 nM in assay [2] ([35S]GTPγS, in the presence of 1 μM U69593); 12.4 ± 2.25 nM in assay [4] (in the presence of 1 μM DAMGO, read-out: IC50 inhibiting DAMGO stimulation of [35S]GTPγS binding, MOP); 48.1 ± 14.1 nM in [6] ([35S]GTPγS, in the presence of 1 μM DPDPE). Further, the “Type of inhibition at KOP” value in assay [2] ([35S]GTPγS antagonist assay) is “non-competitive”. In assay [3] ([35S]GTPγS stimulation relative to standard agonist DPDPE), this molecule registered a DOP % stim of 18.4 ± 1.3%. Further, the EC50 in [3] ([35S]GTPγS stimulation, * = too little stimulation (if < 15% an EC50 was not always determined)) was 59.4 ± 19.6 nM; in [9] ([35S]GTPγS stimulation, average ± SD) it was 61.8 ± 20.1 nM. In addition, in assay [4] (Schild analysis), the “Type of antagonism at MOP” value is on record as “very potent competitive antagonists”. The “MOP pA2” value in [4] (antagonist activity in [35S]GTPγS assay, Schild analysis versus DAMGO) is 10.58 ± 0.13 and 10.58 ± 0.14. The “MOP Ke” value in assay [4] (antagonist activity in [35S]GTPγS assay, Schild analysis versus DAMGO, unit not given) stood at 0.026 ± 0.008. In assay [5], this molecule yielded an MOP % stim of 7.8 ± 3.5%. Besides, in assay [6] ([35S]GTPγS antagonist assay), the “Type of inhibition at DOP” value was “non-competitive”. For the same molecule, the Ki in [7] is 2.56 ± 0.48 nM; in [8], 1.08 ± 0.33 nM; in assay [10], 49.8 ± 7.1 nM; in assay [11] it was 1.9 ± 0.42 nM. In addition, the NOP % stim in assay [9] ([35S]GTPγS stimulation relative to standard agonist N/OFQ) was determined as 8.9 ± 1.0%. Moreover, the “Tail flick latency versus vehicle controls” value in assay [12] (1 mg/kg s.c.) is “significant increase in tail flick latency compared to vehicle controls at the 60- and 120-min time points”. In addition, the “Effect on morphine-induced antinociception, tail flick” value in assay [12] (1 mg/kg s.c. given 10 min before morphine, P < 0.05) was “morphine-induced antinociception was attenuated at the 30- and 60-min time points”. Further, the “Antinociception versus vehicle controls, tail flick” value in assay [12] (3.0 mg/kg s.c.) was “significant antinociception at the 30- and 120-min time points”. In addition, in assay [12] (1 and 3 mg/kg s.c., 30, 60, 120 min), the “Antinociception (%MPE), tail flick” value was “low levels of antinociception”. Besides, in assay [13], the KOP % stim was found to be 6.5 ± 3.3%.
